We go through 90 molecules from a melting point compilation (Tetko et al.; mined from patent text by program, amines drawn as free bases though some values may be those of a salt).

As to `O=C1Cc2c(cccc2C(=O)O)Sc2ccccc21`, the melting point was 230 to 232 °C. Molecule `CN(C)c1ccc(CCc2ccc3c(=O)[nH]ncc3c2)cc1` came in with a melting point of 257 to 259 °C.

As to `COc1ccc2cc(C(C)C(O)(P(=O)(O)O)P(=O)(O)O)ccc2c1` (stereo not given), the melting point was determined as 205 °C. The value for `COc1ncc(NC(N)=S)c(OC)n1` was 175 °C. Take `CC(=CC(=O)c1cccnc1)N1CCCC1`: the melting point fell in the range of 116 to 118 °C.

In the case of `COc1ccc(-c2ccc3nc(N)c4ncn(CC(C)C)c4c3c2)c(OC)c1`, the melting point fell in the range of 223 to 227 °C. Molecule `COC(OC)c1cccc(-c2ccc(C(=O)O)cc2)c1` showed a melting point of 130 to 131 °C. The value for `COC(=O)c1ccccc1OCC(O)CN1CCN(c2ccccc2OC)CC1` (stereo not given) was 120 to 121 °C; that for `O=C(C=Cc1ccccc1)c1cccc(O)c1` was 143 to 147 °C; that for `CN(CCNc1ncc(Cc2ccc(Cl)cc2)c(=O)[nH]1)c1ccccn1` was 172 to 174 °C.

`Clc1cccc2c1C1(CO1)c1cccc(Cl)c1C21CO1` (stereo not given) gave a melting point of 172 to 178 °C. `Cc1ccc2ncn(C3CCC(=O)NC3=O)c(=O)c2c1` (stereo not given): the melting point lay in the range of 285 to 287 °C. Turning to `COc1cc(Nc2nccc(-c3ccc(N4CCCNCC4)nc3)n2)cc(OC)c1OC`, the melting point is 144 to 145 °C. `O=C1CCCN1CCCn1cnc2cnc3cc(-c4ccccc4)ccc3c21` showed a melting point of 138 to 141 °C. The value for `OCC1Cc2c(ccc3c(-c4ccccc4)noc23)O1` (stereo not given) was 107 to 109 °C; that for `CC(C)(C)C(=O)C(C(CC#N)c1ccccc1)n1ccnc1` (stereo not given) was 108 to 111 °C; that for `CON=C1CCS(=O)(=O)c2c(C)cc(C(=O)O)c(C)c21` was 169 to 171 °C. `COc1c(C)c(C)c(NC(=O)OC(C)(C)C)c(C)c1Br`: the melting point was in the range of 159 to 161 °C. `CCOC(=O)CCn1nc(-c2cc(C(C)(C)C)c(O)c(C(C)(C)C)c2)c2cccnc21` had a melting point of 105 to 106 °C. Turning to `C#CCCCOc1ccc(C=O)cc1OC`, the melting point lay within 91 to 92 °C.

On to `CC(N1CCN(C=O)CC1)C(O)(Cn1cncn1)c1ccc(F)cc1F` (stereo not given), for which the melting point lay within 118 to 120 °C.

Consider `COc1cc([C@H]2CC[C@H](c3cc(OC)c(OC)c(OC)c3)C2=O)cc(OC)c1OC` (relative stereo), for which the melting point lay in the range of 140 to 142 °C. The value for `O=c1oc2cc(OCc3nnn[nH]3)cc(OCc3nnn[nH]3)c2c2c1C(c1ccccc1)CCC2` (stereo not given) was 153 to 154 °C. For `CS(=O)(=O)c1ccc(-c2cnn(-c3ccc(F)cc3)c(=O)c2C2CCCCC2)cc1`, the melting point is 231 to 233 °C.

`CC(=O)Oc1cccc2c1CCNC2=O` registered a melting point of 189 to 193 °C. The value for `CC(CN1CCC(Nn2cccc2)CC1)c1ccccc1` (stereo not given) was 72 to 74 °C. In turn, `CCOC(=O)c1cnn(-c2cccc(S(=O)(=O)N(C)C)n2)c1Cl` gave a melting point of 117 to 120 °C. `CCc1cccc2c1C(=O)C(=S)N2`: the melting point fell in the range of 171 to 172 °C. Molecule `CC(C)(C)Nc1ccncc1NC(=S)NC1CCCCC1` showed a melting point of 216 to 218 °C.

Consider `NC(=O)c1c(Cl)c(-c2ccccc2)n2c1CN(S(=O)(=O)c1ccc(-c3ccccn3)s1)CC2`, for which the melting point lay in the range of 222 to 224 °C. The figure for `CC(=O)OCC=C(C)CS(=O)(=O)c1ccccc1` is 86 to 92 °C; for `CCCCOC(=O)c1ccc(N2CCN(CC=Cc3ccc(Cl)cc3)CC2)cc1` it is 115 to 117 °C. The molecule `CCOC(=O)Nc1cc(N(C)C)nc2nc(=O)on12` gave a melting point of 230 to 240 °C. The figure for `C#CCOCc1c(C)nc2c(OCc3ccccc3C#N)cccn12` is 144 °C. Take `O=C1C2=C(CCCC2)C(=O)N1c1c(F)cc(Cl)c2nc(Cl)sc12`: the melting point fell in the range of 139 to 141 °C. For `CC(CCN1c2cccc3cccc(c23)S1(=O)=O)N1CCN(c2ccc(F)cc2)CC1` (stereo not given), the melting point is 122 °C. In turn, `Cc1c(NC(=O)c2ccc(-c3ccc(F)cc3)cc2)ccc2cc(CN3CCCCCC3)cnc12` yielded a melting point of 166 to 168 °C.

`NC(=O)CC(c1cccc(F)c1)c1cccc(F)c1` registered a melting point of 103 to 105 °C.

In turn, `CC1(C)OC(=O)C(=C(Nc2ccccc2Br)N2CCOCC2)C(=O)O1` yielded a melting point of 212 to 213 °C.

On to `CC(C)(Oc1ccc(Cl)cc1)c1ccnc2ncnn12`, for which the melting point was in the range of 132 to 135 °C. In turn, `Nc1cscc1NC(=S)Nc1c(Cl)csc1Cl` showed a melting point of 110 to 115 °C. The molecule `Oc1ccc(-c2nn(-c3ccccc3F)c3cc(O)ccc23)c(O)c1` displayed a melting point above 205 °C. Molecule `Brc1ccn2nc(Br)nc2c1` registered a melting point of 183 to 184 °C. In turn, `CC1(N)CN(c2c(F)cc3c(=O)c(C(=O)O)cn(-c4ccc(F)cc4F)c3c2F)C1` yielded a melting point of 185 to 186 °C. Regarding `CCN(CC)C(=O)c1ccc(C(=C2CCNCC2)c2cccc3cccnc23)cc1`, the melting point is above 170 °C. The molecule `CCCCCCc1cccc(NC2=NCCS2)c1` gave a melting point of 79 to 80 °C. The figure for `CN1CCN(c2c(CO)cnc3c(NC(=O)c4c(Cl)cccc4Cl)cccc23)C1=O` is 251 to 253 °C. The molecule `CC1(C)[C@@H](C(=O)Nc2ccncc2)[C@@H]1c1ccc(S(N)(=O)=O)cc1` (relative stereo) had a melting point of 270 to 274 °C. Molecule `CC(C)(C)C(=O)c1ccc(CN2C(=O)c3ccccc3C2=O)cc1` showed a melting point of 138 to 140 °C. The molecule `CC(C)(C)OC(=O)NCC(=O)NNc1ccc(N)cc1` had a melting point of 144 °C. On to `O=C(O)C(Cc1occ2ccccc12)NC(=O)C(CS)C(F)(F)F` (stereo not given), for which the melting point is 143 to 145 °C. Molecule `CCOC(=O)CCCCCN1CCC[C@@H](NCc2ccccc2OC)[C@H]1c1ccccc1` (racemic) registered a melting point of 80 to 95 °C. The value for `COc1cc(C=C(C=O)C(C=O)=Cc2ccc(OC(=O)c3ccccc3)c(OC)c2)ccc1OC(=O)c1ccccc1` was 107 to 110 °C; that for `O=c1cc(-c2cccc(F)c2)oc(N2CCOCC2)c1` was 169 to 170 °C. As to `CC(CCCN(C)C)C1CC(=O)C2=C3CCC4CC(O)CCC4(C)C3CCC21C` (stereo not given), the melting point was in the range of 160 to 162 °C. In turn, `CN1CC(CNC(=N)NC(=O)c2cncc(Br)c2)CC2c3cccc4c3c(cn4C)CC21` (stereo not given) had a melting point of 140 to 142 °C. In the case of `COc1cc2c(cc1OC)CN(CCc1ccc(NC(=O)c3cccc4c(=O)c5cccc(OC)c5[nH]c34)cc1)C2`, the melting point lay within 215 to 225 °C. `COc1ccc(S(=O)(=O)C(C)(Cc2cccnc2)C(=O)NO)cc1` (stereo not given) showed a melting point of 98 °C.

`CCCC(=O)c1cnc2ccsc2c1Nc1ccc(F)cc1C` gave a melting point of 153 to 155 °C. `COc1ccccc1CC(=N)N1CCC(=O)C(C(c2ccccc2)c2ccccc2)C1` (stereo not given) displayed a melting point of 57 to 58 °C. Turning to `COc1cc2cc3c(=O)nc[nH]c3nc2cc1OC`, the melting point was in the range of 311 to 312 °C. Consider `CC(=CC(=O)c1ccncc1)N(C)C`, for which the melting point is 88 to 89 °C. `Cc1cccc(C)c1NNC(=O)OCCCl` displayed a melting point of 74 to 75 °C. Consider `CCOC(=O)N1CCc2c([nH]c3ccc(Cl)cc23)C1C1(C(N)=O)CCC1` (stereo not given), for which the melting point lay in the range of 200 to 220 °C.

Turning to `NS(=O)(=O)c1ccc(-c2c(-c3ccccc3)noc2CC(=O)C(F)(F)F)cc1`, the melting point is 132 to 139 °C. Molecule `Cc1ccc(C=CC(C#N)=NO)cc1` returned a melting point of 135 to 137 °C. The value for `CCCCn1c(=O)cc(O)c2ccccc21` was 211 to 213 °C; that for `CCN(CC)CCNC(=O)c1cc(Cl)c(NC(=O)c2ccc3ccccc3c2)cc1OC` was 173 to 174 °C; that for `CCCCCCCOc1ccc(C(=O)Nc2ccccc2O)cc1` was 131 to 133 °C.

Molecule `N#Cc1nn(-c2c(Cl)cc(-c3ccc(C(F)(F)F)cc3)cc2Cl)c(N)c1Br` gave a melting point of 178 to 180 °C. `CC(=NOCCO)c1ccc(-c2ccc(F)cc2)cc1` yielded a melting point of 133 to 134 °C. Molecule `Fc1cccc(OCc2nnc(-c3ccc4c(c3)CCO4)o2)c1` returned a melting point of 91 to 93 °C. Take `CC(C)(N)C1CN([C@@H]2Cc3ccccc3[C@H]2Oc2ccc(C#N)cc2Cl)C1`: the melting point is 93 °C. With `O=C(C=Cc1ccc(C(F)(F)F)cc1-c1nccs1)Nc1ccc2[nH]ccc2c1`, the melting point lay within 203 to 204 °C. Turning to `CC(C)c1nc(-c2c(F)c(F)cc(F)c2F)cc(-c2ccc(F)cc2)c1C=C(Br)Br`, the melting point was found to be 77 °C. `CC(=O)NC1C(Cl)OC(COC(C)=O)C(OC(C)=O)C1OC(C)=O` (stereo not given): the melting point was found to be 143 °C. The value for `C[C@@H](N(CCOCc1ccccc1)C(=O)c1ccc(OCC(F)(F)C(F)F)cc1)[C@](O)(Cn1cncn1)c1ccc(Cl)cc1Cl` (relative stereo) was 51 to 62 °C. `COc1cc(Nc2c(C#N)cnc3sc(CCCCO)cc23)cc(OC)c1OC`: the melting point lay within 125 to 127 °C. Molecule `Cc1ncnn1-c1cc(F)ccc1CNC(=O)c1nc2n(c(=O)c1O)CCN2C(C)C` showed a melting point of 212 °C.

The molecule `CN(C)CCNC(=O)c1ccc(-c2cccc(CSCCOc3ccccc3)c2)cc1` displayed a melting point of 75 to 78 °C. For `NS(=O)(=O)c1ccccc1SCCF`, the melting point lay in the range of 83 to 85 °C. For `CC1Cc2cc3c(cc2C(c2ccccc2)N1)OCO3` (stereo not given), the melting point was 89 to 91 °C.

Molecule `O=C(Nc1cccc(C(F)(F)F)c1F)c1ccccc1[N+](=O)[O-]` returned a melting point of 156 to 157 °C.

Turning to `CCOC(=O)/C=C/c1ccc(OCCOC)cc1Oc1ccc([N+](=O)[O-])cc1`, the melting point is 61 to 64 °C. The figure for `O=Cc1ccc(CCCCCCCC(=O)O)o1` is 70 to 72 °C. The value for `C=Cc1cnc(C)c(O)c1CS` was 198 to 200 °C; that for `Cc1c(NC(=O)c2cc3c(s2)CCCC3)cccc1-c1cc(N)c(=O)n(C)c1` was 210 to 211 °C; that for `COC(=O)CC(c1ccc(OC)c(OC)c1)N1C(=O)c2ccccc2C1=O` (stereo not given) was 114 to 116 °C. Molecule `COCCCCc1cccc(C2(c3ccc(OC(F)F)cc3)N=C(N)N(C)C2=O)c1` (stereo not given) returned a melting point of 36 to 39 °C. The figure for `Nc1nc2c(s1)CC(CNC(=O)[C@@H]1CCCN1C(=O)[C@@H](CC1CCCCC1)NS(=O)(=O)Cc1ccccc1)CC2` (stereo not given in full) is 203 to 205 °C.
